Results taken from publication PMC9186362, “Design and biological evaluation of substituted 5,7-dihydro-6H-indolo[2,3-c]quinolin-6-one as novel selective Haspin inhibitors” (Journal of Enzyme Inhibition and Medicinal Chemistry, 2022).

Assays:
Experiment in all cases: LanthaScreen Binding - Eu-anti-GST
FLT3 ITD = conditions: 1 µM
Protocol: (§1) We further evaluated the selectivity profile of compound 55 on a larger panel of kinases (SelectScreen Whole Panel, Life Technologies). The inhibition profile of 55, evaluated at 1 μM, is depicted on a dendrogram on Figure 3 where kinases inhibited by a minimum of 80% are shown. A full list of the kinases tested is shown on Table S1 in supplementary information.

KIT A829P = molecular target: T1, KIT A829P (Homo sapiens, UniProt P10721, A829P); conditions: read-out: Percentage of inhibition
T1 construct: purchased Life Technologies (SelectScreen service)
Protocol: as §1

BRAF = molecular target: T2, BRAF (Homo sapiens, UniProt P15056); conditions: read-out: Percentage of inhibition
T2 construct: purchased Life Technologies (SelectScreen Whole Panel)
Protocol: as §1

EPHA6 = EPHA6 (Homo sapiens, UniProt Q9UF33); conditions: read-out: Percentage of inhibition
Protocol: as §1

TEK (TIE2) Y1108F = TEK (TIE2) Y1108F (Homo sapiens, UniProt Q02763, Y1108F); conditions: read-out: Percentage of inhibition
Protocol: as §1

PRKACG (PRKAC gamma) = molecular target: T3, PRKACG (PRKAC gamma) (Homo sapiens, UniProt P22612); conditions: read-out: Percentage of inhibition
T3 construct: purchased Life Technologies (SelectScreen Whole Panel service)
Protocol: as §1

MYO3B (MYO3 beta) = molecular target: T4, MYO3B (MYO3 beta) (Homo sapiens, UniProt Q8WXR4); conditions: read-out: Percentage of inhibition
T4 construct: purchased Life Technologies (SelectScreen Whole Panel)
Protocol: as §1

MAP3K2 (MEKK2) = molecular target: T5, MAP3K2 (MEKK2) (Homo sapiens, UniProt Q9Y2U5); conditions: read-out: Percentage of inhibition
T5 construct: purchased Life Technologies
Protocol: as §1

VRK2 = molecular target: T6, VRK2 (Homo sapiens, UniProt Q86Y07); conditions: read-out: Percentage of inhibition
T6 construct: purchased Life Technologies (SelectScreen Whole Panel)
Protocol: as §1

WEE1 = molecular target: T7, WEE1 (Homo sapiens, UniProt P30291); conditions: read-out: Percentage of inhibition
T7 construct: purchased Life Technologies (SelectScreen Whole Panel service)
Protocol: as §1

MLK4 = molecular target: T8, MLK4 (Homo sapiens, UniProt Q5TCX8); conditions: read-out: Percentage of inhibition
T8 construct: purchased Life Technologies (SelectScreen Whole Panel service)
Protocol: as §1

MAPK10 (JNK3) = molecular target: T9, MAPK10 (JNK3) (Homo sapiens, UniProt P53779); conditions: read-out: Percentage of inhibition
T9 construct: purchased Life Technologies
Protocol: as §1

TTK = molecular target: T10, TTK (Homo sapiens, UniProt P33981); conditions: read-out: Percentage of inhibition
T10 construct: purchased Life Technologies
Protocol: as §1

ABL1 M351T = ABL1 M351T (Homo sapiens, UniProt P00519, M351T); conditions: read-out: Percentage of inhibition
Protocol: as §1

CDC7/DBF4 = molecular target: T11, CDC7/DBF4 (Homo sapiens, UniProt O00311); conditions: read-out: Percentage of inhibition
T11 construct: purchased Life Technologies (SelectScreen service)
Protocol: as §1

CDK11 (Inactive) = CDK11 (Inactive) (Homo sapiens, UniProt Q9BWU1); conditions: read-out: Percentage of inhibition
Protocol: as §1

GRK1 = molecular target: T12, GRK1 (Homo sapiens, UniProt Q15835); conditions: read-out: Percentage of inhibition
T12 construct: purchased Life Technologies (SelectScreen Whole Panel)
Protocol: as §1

CAMKK2 (CaMKK beta) = molecular target: T13, CAMKK2 (CaMKK beta) (Homo sapiens, UniProt Q96RR4); conditions: read-out: Percentage of inhibition
T13 construct: purchased Life Technologies (SelectScreen Whole Panel service)
Protocol: as §1

MYLK (MLCK) = MYLK (MLCK) (Homo sapiens, UniProt Q15746); conditions: read-out: Percentage of inhibition
Protocol: as §1

RET G691S = molecular target: T14, RET G691S (Homo sapiens, UniProt P07949, G691S); conditions: read-out: Percentage of inhibition
T14 construct: purchased Life Technologies (SelectScreen service)
Protocol: as §1

CDK9 (Inactive) = CDK9 (Inactive) (Homo sapiens, UniProt P50750); conditions: read-out: Percentage of inhibition
Protocol: as §1

KIT D816H = molecular target: T15, KIT D816H (Homo sapiens, UniProt P10721, D816H); conditions: read-out: Percentage of inhibition
T15 construct: purchased Life Technologies (SelectScreen service)
Protocol: as §1

ACVR1 (ALK2) = molecular target: T16, ACVR1 (ALK2) (Homo sapiens, UniProt Q04771); conditions: read-out: Percentage of inhibition
T16 construct: purchased Life Technologies (SelectScreen Whole Panel service)
Protocol: as §1

ABL1 H396P = ABL1 H396P (Homo sapiens, UniProt P00519, H396P); conditions: read-out: Percentage of inhibition
Protocol: as §1

CDK16 (PCTK1)/cyclin Y = molecular target: T17, CDK16 (PCTK1)/cyclin Y (Homo sapiens, UniProt Q00536); conditions: read-out: Percentage of inhibition
T17 construct: purchased Life Technologies
Protocol: as §1

CASK = molecular target: T18, CASK (Homo sapiens, UniProt O14936); conditions: read-out: Percentage of inhibition
T18 construct: purchased Life Technologies (SelectScreen Whole Panel)
Protocol: as §1

ULK2 = molecular target: T19, ULK2 (Homo sapiens, UniProt Q8IYT8); conditions: read-out: Percentage of inhibition
T19 construct: purchased Life Technologies (SelectScreen service)
Protocol: as §1

MAP2K5 (MEK5) = molecular target: T20, MAP2K5 (MEK5) (Homo sapiens, UniProt Q13163); conditions: read-out: Percentage of inhibition
T20 construct: purchased Life Technologies (SelectScreen service)
Protocol: as §1

GAK = molecular target: T21, GAK (Homo sapiens, UniProt O14976); conditions: read-out: Percentage of inhibition
T21 construct: purchased Life Technologies (SelectScreen service)
Protocol: as §1

MAP3K5 (ASK1) = molecular target: T22, MAP3K5 (ASK1) (Homo sapiens, UniProt Q99683); conditions: read-out: Percentage of inhibition
T22 construct: purchased Life Technologies
Protocol: as §1

STK32C (YANK3) = molecular target: T23, STK32C (YANK3) (Homo sapiens, UniProt Q86UX6); conditions: read-out: Percentage of inhibition
T23 construct: purchased Life Technologies (SelectScreen Whole Panel)
Protocol: as §1

CDK2/cyclin O = CDK2/cyclin O (Homo sapiens, UniProt P24941); conditions: read-out: Percentage of inhibition
Protocol: as §1

ERN2 = molecular target: T24, ERN2 (Homo sapiens, UniProt Q76MJ5); conditions: read-out: Percentage of inhibition
T24 construct: purchased Life Technologies (SelectScreen)
Protocol: as §1

DDR2 T654M = molecular target: T25, DDR2 T654M (Homo sapiens, UniProt Q16832, T654M); conditions: read-out: Percentage of inhibition
T25 construct: purchased Life Technologies (SelectScreen service)
Protocol: as §1

FGFR1 V561M = FGFR1 V561M (Homo sapiens, UniProt P11362, V561M); conditions: read-out: Percentage of inhibition
Protocol: as §1

CDK13/cyclin K = molecular target: T26, CDK13/cyclin K (Homo sapiens, UniProt Q14004); conditions: read-out: Percentage of inhibition
T26 construct: purchased Life Technologies (SelectScreen Whole Panel service)
Protocol: as §1

SIK1 = molecular target: T27, SIK1 (Homo sapiens, UniProt P57059); conditions: read-out: Percentage of inhibition
T27 construct: purchased Life Technologies (SelectScreen Whole Panel service)
Protocol: as §1

ALK R1275Q = molecular target: T28, ALK R1275Q (Homo sapiens, UniProt Q9UM73, R1275Q); conditions: read-out: Percentage of inhibition
T28 construct: purchased Life Technologies (SelectScreen service)
Protocol: as §1

TAOK1 = molecular target: T29, TAOK1 (Homo sapiens, UniProt Q7L7X3); conditions: read-out: Percentage of inhibition
T29 construct: purchased Life Technologies
Protocol: as §1

ALK C1156Y = molecular target: T30, ALK C1156Y (Homo sapiens, UniProt Q9UM73, C1156Y); conditions: read-out: Percentage of inhibition
T30 construct: purchased Life Technologies
Protocol: as §1

T12 sequence (Q15835 whole entry): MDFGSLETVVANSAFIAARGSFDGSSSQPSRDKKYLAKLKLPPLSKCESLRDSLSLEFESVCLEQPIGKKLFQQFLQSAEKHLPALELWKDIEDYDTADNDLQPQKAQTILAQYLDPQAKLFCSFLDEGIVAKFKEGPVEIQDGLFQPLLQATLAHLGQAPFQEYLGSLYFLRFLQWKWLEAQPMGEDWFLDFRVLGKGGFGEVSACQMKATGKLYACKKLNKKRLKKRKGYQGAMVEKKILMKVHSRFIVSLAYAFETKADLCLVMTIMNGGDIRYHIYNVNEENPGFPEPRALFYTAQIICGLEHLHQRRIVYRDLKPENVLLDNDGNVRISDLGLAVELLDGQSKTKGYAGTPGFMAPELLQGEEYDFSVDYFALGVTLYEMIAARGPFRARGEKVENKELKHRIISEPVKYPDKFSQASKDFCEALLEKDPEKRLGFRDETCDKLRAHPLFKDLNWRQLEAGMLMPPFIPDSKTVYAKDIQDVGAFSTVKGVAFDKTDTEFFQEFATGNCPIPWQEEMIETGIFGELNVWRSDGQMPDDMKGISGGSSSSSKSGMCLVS
Chain of CDK9 (Inactive) (P50750 whole entry): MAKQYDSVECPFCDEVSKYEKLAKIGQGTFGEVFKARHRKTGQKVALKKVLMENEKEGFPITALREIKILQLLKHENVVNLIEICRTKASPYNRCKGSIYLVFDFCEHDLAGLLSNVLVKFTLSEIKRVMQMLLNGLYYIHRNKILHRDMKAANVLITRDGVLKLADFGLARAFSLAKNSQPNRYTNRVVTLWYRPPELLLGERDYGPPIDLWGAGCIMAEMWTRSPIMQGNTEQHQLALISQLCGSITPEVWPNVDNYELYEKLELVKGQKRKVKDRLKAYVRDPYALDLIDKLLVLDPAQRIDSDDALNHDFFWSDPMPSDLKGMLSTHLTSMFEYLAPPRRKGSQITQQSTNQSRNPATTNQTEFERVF
Chain of CDK11 (Inactive) (Q9BWU1 whole entry): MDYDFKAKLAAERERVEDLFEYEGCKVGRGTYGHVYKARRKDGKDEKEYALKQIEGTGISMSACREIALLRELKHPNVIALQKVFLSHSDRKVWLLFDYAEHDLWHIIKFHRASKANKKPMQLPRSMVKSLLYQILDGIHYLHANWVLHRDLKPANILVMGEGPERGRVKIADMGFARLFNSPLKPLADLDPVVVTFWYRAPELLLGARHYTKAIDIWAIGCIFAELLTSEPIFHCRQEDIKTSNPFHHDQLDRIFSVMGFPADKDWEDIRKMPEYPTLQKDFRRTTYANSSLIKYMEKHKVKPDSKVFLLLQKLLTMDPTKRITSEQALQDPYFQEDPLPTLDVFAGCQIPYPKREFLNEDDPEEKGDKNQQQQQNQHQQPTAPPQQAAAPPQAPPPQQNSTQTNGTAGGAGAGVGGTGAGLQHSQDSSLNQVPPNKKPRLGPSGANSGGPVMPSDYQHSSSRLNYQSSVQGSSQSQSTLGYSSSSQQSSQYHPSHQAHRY
T26 sequence (Q14004 whole entry): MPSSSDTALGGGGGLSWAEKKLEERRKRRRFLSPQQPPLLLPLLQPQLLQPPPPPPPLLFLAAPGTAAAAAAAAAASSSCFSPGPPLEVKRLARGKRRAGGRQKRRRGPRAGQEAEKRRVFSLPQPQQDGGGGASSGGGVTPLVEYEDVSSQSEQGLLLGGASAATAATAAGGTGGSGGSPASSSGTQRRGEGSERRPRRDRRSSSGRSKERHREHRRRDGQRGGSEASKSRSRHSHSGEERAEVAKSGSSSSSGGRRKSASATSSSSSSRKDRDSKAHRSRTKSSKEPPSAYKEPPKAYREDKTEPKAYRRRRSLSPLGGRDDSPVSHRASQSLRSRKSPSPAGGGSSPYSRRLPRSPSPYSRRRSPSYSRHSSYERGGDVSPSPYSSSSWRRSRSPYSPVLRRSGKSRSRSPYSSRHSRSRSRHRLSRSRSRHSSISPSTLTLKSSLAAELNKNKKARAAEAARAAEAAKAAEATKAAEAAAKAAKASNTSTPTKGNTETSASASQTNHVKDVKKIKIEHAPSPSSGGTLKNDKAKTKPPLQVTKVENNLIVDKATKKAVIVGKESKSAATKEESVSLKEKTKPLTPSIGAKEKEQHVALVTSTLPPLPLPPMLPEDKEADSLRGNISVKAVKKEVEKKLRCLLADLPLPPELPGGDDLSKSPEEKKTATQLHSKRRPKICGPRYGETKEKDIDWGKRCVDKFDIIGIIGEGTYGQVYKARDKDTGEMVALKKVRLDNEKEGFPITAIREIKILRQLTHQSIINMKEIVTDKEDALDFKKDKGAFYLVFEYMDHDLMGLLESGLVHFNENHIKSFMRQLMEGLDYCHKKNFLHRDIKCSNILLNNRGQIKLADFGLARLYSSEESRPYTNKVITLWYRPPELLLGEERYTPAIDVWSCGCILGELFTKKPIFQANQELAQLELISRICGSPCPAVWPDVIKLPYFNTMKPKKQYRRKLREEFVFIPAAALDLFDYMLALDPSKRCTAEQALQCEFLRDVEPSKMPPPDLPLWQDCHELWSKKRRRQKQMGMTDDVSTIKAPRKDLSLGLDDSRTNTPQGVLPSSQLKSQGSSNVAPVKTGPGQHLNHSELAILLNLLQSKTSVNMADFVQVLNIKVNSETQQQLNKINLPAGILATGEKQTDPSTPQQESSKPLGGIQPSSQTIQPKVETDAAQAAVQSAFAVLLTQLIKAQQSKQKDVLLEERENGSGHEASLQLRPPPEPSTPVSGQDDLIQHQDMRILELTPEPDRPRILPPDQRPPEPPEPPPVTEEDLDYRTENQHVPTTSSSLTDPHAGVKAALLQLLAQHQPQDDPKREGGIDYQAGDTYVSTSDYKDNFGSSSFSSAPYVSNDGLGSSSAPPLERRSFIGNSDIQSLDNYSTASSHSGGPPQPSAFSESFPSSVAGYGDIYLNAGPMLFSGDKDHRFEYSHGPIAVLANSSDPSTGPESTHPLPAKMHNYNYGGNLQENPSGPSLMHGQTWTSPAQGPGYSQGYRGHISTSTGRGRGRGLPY
T26 sequence (O75909 whole entry partner): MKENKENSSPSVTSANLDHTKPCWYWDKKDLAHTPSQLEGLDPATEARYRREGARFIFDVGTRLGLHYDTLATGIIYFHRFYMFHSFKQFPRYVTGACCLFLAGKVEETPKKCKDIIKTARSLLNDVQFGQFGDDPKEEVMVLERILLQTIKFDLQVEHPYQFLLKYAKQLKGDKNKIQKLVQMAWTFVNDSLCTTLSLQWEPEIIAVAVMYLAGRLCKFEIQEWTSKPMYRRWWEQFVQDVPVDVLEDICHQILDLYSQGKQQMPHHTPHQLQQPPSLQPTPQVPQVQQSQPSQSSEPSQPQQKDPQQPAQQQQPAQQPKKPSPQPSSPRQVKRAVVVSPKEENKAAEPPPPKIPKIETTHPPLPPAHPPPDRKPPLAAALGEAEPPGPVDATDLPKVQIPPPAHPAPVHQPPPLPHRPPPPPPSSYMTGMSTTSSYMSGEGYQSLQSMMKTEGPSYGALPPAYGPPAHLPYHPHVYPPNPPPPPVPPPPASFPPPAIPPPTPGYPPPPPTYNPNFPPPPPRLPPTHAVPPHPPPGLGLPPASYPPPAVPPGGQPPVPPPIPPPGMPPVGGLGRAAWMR
T25 sequence (Q16832 22-855 T654M): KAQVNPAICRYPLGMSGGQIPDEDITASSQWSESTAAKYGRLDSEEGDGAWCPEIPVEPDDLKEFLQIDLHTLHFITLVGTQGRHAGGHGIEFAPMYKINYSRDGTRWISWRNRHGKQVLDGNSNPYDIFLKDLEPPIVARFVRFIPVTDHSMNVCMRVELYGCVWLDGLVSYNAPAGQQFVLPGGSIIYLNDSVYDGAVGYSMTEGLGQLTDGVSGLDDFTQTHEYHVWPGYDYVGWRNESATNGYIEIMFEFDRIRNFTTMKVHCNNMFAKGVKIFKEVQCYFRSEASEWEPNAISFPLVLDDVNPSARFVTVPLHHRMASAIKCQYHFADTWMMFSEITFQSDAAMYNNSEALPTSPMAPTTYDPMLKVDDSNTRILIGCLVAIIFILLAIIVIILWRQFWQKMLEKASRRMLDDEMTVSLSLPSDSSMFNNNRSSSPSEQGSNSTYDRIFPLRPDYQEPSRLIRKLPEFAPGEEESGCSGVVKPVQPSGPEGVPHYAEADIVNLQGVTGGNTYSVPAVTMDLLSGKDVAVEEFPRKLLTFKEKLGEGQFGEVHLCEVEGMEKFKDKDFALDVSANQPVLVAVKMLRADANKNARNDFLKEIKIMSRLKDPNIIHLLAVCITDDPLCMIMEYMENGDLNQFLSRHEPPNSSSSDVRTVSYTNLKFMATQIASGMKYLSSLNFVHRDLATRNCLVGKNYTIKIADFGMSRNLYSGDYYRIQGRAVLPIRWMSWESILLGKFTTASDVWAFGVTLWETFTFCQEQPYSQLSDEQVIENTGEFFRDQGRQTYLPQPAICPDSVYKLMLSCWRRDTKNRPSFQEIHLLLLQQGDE
T16 sequence (Q04771 21-509): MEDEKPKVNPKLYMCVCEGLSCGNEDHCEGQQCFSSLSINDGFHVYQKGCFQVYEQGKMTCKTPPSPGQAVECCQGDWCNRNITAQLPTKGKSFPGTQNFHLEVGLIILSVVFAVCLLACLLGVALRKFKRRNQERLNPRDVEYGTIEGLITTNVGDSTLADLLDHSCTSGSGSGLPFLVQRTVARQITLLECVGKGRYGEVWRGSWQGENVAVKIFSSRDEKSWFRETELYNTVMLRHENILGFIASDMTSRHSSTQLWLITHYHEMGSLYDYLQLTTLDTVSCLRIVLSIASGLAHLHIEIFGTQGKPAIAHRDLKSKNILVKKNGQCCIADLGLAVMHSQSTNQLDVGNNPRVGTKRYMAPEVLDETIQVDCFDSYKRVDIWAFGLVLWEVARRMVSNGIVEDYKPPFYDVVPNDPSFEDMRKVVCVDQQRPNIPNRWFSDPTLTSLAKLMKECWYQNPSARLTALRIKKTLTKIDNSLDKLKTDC

COc1ccc2[nH]c3c(=O)[nH]c4ccc(O)cc4c3c2c1 [Compound 55, 2-Hydroxy-10-methoxy-5,7-dihydro-6H-indolo[2,3-c]quinolin-6-one]
Percentage of inhibition (FLT3 ITD): 97% | inhibition at 1 µM (KIT A829P): 76% | inhibition at 1 µM (BRAF): 6% | inhibition at 1 µM (EPHA6): 21% | inhibition at 1 µM (TEK (TIE2) Y1108F): 6% | inhibition at 1 µM (PRKACG (PRKAC gamma)): 17% | inhibition at 1 µM (MYO3B (MYO3 beta)): 53% | inhibition at 1 µM (MAP3K2 (MEKK2)): 42% | inhibition at 1 µM (VRK2): 54% | inhibition at 1 µM (WEE1): 18% | inhibition at 1 µM (MLK4): 18% | inhibition at 1 µM (MAPK10 (JNK3)): 29% | inhibition at 1 µM (TTK): 42% | inhibition at 1 µM (ABL1 M351T): 60% | inhibition at 1 µM (CDC7/DBF4): 83% | inhibition at 1 µM (CDK11 (Inactive)): 13% | inhibition at 1 µM (GRK1): 50% | inhibition at 1 µM (CAMKK2 (CaMKK beta)): 10% | inhibition at 1 µM (MYLK (MLCK)): 60% | inhibition at 1 µM (RET G691S): 91% | inhibition at 1 µM (CDK9 (Inactive)): 59% | inhibition at 1 µM (KIT D816H): 80% | inhibition at 1 µM (ACVR1 (ALK2)): 15% | inhibition at 1 µM (ABL1 H396P): 61% | inhibition at 1 µM (CDK16 (PCTK1)/cyclin Y): 38% | inhibition at 1 µM (CASK): -3% | inhibition at 1 µM (ULK2): 25% | inhibition at 1 µM (MAP2K5 (MEK5)): 80% | inhibition at 1 µM (GAK): 90% | inhibition at 1 µM (MAP3K5 (ASK1)): 28% | inhibition at 1 µM (STK32C (YANK3)): 1% | inhibition at 1 µM (CDK2/cyclin O): 61% | inhibition at 1 µM (ERN2): 8% | inhibition at 1 µM (DDR2 T654M): 73% | inhibition at 1 µM (FGFR1 V561M): 60% | inhibition at 1 µM (CDK13/cyclin K): 17% | inhibition at 1 µM (SIK1): 19% | inhibition at 1 µM (ALK R1275Q): 23% | inhibition at 1 µM (TAOK1): 35% | inhibition at 1 µM (ALK C1156Y): 34%
